Measured values as given in patent publication US8895547B2, “Substituted phenyl-oxathiazine derivatives, method for producing them, drugs containing said compounds and the use thereof” (Sanofi, priority 2011, dated 2014).

These compounds were tested against T1, human 11β-HSD1 (Homo sapiens, UniProt P28845) (assay: Enzymatic 11beta-HSD1 test (SPA-based detection)). Details: human 11β-HSD1 microsome fraction, [1,2-3H]-cortisone, NADPH, 37° C. 1 hour.
T1 construct: host or cells: microsome fraction
T1 sequence (P28845 whole entry): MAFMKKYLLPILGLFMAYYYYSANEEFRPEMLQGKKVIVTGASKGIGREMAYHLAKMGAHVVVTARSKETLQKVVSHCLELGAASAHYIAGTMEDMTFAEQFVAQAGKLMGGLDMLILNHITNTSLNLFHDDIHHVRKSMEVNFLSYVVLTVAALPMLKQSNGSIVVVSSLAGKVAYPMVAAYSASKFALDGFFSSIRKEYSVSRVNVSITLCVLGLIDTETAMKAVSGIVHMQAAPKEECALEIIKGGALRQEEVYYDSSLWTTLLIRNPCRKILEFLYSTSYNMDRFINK
Assay type: biochemical
Method: Enzymatic 11beta-HSD1 test:
To measure the activity of the compounds, an SPA-based detection method (Solly et al. 2005) was employed. First of all, 20 μl of the human 11β-HSD1 microsome fraction (0.2 μg of protein), prepared in 50 mM HEPES, 0.1% BSA (w/v), were applied to a plate with 384 wells. The test compounds (0.09 μl) were applied to the assay plate in 100% DMSO. The reaction was started by addition of 20 μl of [1,2-^3H]-cortisone (0.1 μCi/[…]) in assay buffer comprising 25 mM HEPES, 100 mM KCl, 5 mM NaCl, 2 mM MgCl2 and 0.25 mM NADPH. The plate was agitated at 37° C. for 1 hour. At the same time, a stop solution comprising 20 mg/ml SPA-PVT beads, 1.6 mg/ml monoclonal cortisol antibody and 0.01 mM SSR110887 (inhibitor from the Biovitrium patent) in 50 mM HEPES, 1 M NaCl and 1 M KCl was stirred at room temperature. To stop the reaction, 25 μl of the stop solution were added to each well. The plate was agitated gently at room temperature for 1 further hour and then centrifuged at 500 gav for 1 minute, in order that the SPA beads could settle out. The plate was then read in a Wallac-1450-Microbeta unit with a standard SPA program (counting time 1 min/well). The comparative compound was glycyrrhetinic acid.
Protein and radioactive substrate were dispensed with a Biomek FX unit (Beckman Coulter) for handling liquids. The test compounds were added with a Cybi-Well equipped with a 90 nl pin tool (CyBio).
Lit.: Solly S, Mundt S S, Zokian H J, Juy-Fang Ding G, Hermanowski-Vosatka A, Strulovici B and Zheng W. High-throughput screening of 11β-Hydroxysteroid dehydrogenase type 1 in scintillation proximity format. Assay Drug Dev Technol 2005; 3:377-384.

Row | Structure (SMILES) | IC50 [nM]
1 | COc1cccc(C2C(C)(C)OC(N[C@@H](CCO)c3ccccc3)=NS2(=O)=O)c1 (stereo partly drawn) [Example 37, (S)-3-[5-(3-Methoxy-phenyl)-6,6-dimethyl-4,4-dioxo-5,6-dihydro-4H-4lambda6-[1,4,3]oxathiazin-2-ylamino]-3-phenyl-propan-1-ol] | 13
2 | CC1(C)OC(N[C@@H](CCO)c2ccccc2)=NS(=O)(=O)C1(C)c1ccccc1 (stereo partly drawn) [Example 42, (S)-3-Phenyl-3-(5,6,6-trimethyl-4,4-dioxo-5-phenyl-5,6-dihydro-4H-4lambda6-[1,4,3]oxathiazin-2-ylamino)-propan-1-ol] | 17
3 | CC1(C)OC(N[C@@H](CCO)c2ccccc2F)=NS(=O)(=O)C1(C)c1cccc(N2CCN(S(C)(=O)=O)CC2)c1 (stereo partly drawn) [Example 44, (S)-3-(2-Fluorophenyl)-3-{5-[3-(4-methanesulfonyl-piperazin-1-yl)-phenyl]-5,6,6-trimethyl-4,4-dioxo-5,6-dihydro-4H-4lambda6-[1,4,3]oxathiazin-2-ylamino}-propan-1-ol] | 13
4 | CC1(C)OC(N[C@@H](CCO)c2ccccc2F)=NS(=O)(=O)C1(C)c1cccc(-c2cncnc2)c1 (stereo partly drawn) [Example 46, (S)-3-(2-Fluorophenyl)-3-[5,6,6-trimethyl-4,4-dioxo-5-(3-pyrimidin-5-yl-phenyl)-5,6-dihydro-4H-4lambda6-[1,4,3]oxathiazin-2-ylamino]-propan-1-ol] | 18
5 | CC1(C)OC(N[C@@H](CCO)c2ccccc2F)=NS(=O)(=O)C1(C)c1cccc(Br)c1 (stereo partly drawn) [Example 47, (S)-3-[5-(3-Bromophenyl)-5,6,6-trimethyl-4,4-dioxo-5,6-dihydro-4H-4lambda6-[1,4,3]oxathiazin-2-ylamino]-3-(2-fluorophenyl)-propan-1-ol] | 5
6 | CC1(C)OC(N[C@@H](CCO)c2ccccc2)=NS(=O)(=O)C1(F)c1cccc(Br)c1 (stereo partly drawn) [Example 50, (S)-3-[5-(3-Bromophenyl)-5-fluoro-6,6-dimethyl-4,4-dioxo-5,6-dihydro-4H-4lambda6-[1,4,3]oxathiazin-2-ylamino]-3-phenyl-propan-1-ol] | 40
7 | CC1(C)OC(N[C@@H](CCO)c2ccccc2F)=NS(=O)(=O)C1c1ccc(-c2ccccc2)cc1 (stereo partly drawn) [Example 51, (S)-3-(5-Biphenyl-4-yl-6,6-dimethyl-4,4-dioxo-5,6-dihydro-4H-4lambda6-[1,4,3]oxathiazin-2-ylamino)-3-(2-fluorophenyl)-propan-1-ol] | 15
8 | CC1(C)OC(N[C@@H](CCO)c2ccccc2F)=NS(=O)(=O)C1(C)c1ccc(-c2ccccc2)cc1 (stereo partly drawn) [Example 53, (S)-3-(5-Biphenyl-4-yl-5,6,6-trimethyl-4,4-dioxo-5,6-dihydro-4H-4lambda6-[1,4,3]oxathiazin-2-ylamino)-3-(2-fluorophenyl)-propan-1-ol] | 8
9 | CC1(C)OC(N[C@@H](CCO)c2ccccc2)=NS(=O)(=O)C1(C)c1ccc(-c2ccccc2)cc1 (stereo partly drawn) [Example 54, (S)-3-(5-Biphenyl-4-yl-5,6,6-trimethyl-4,4-dioxo-5,6-dihydro-4H-4lambda6-[1,4,3]oxathiazin-2-ylamino)-3-phenyl-propan-1-ol] | 9
10 | C[C@H](NC1=NS(=O)(=O)C(C)(c2ccc(-c3ccccc3)cc2)C(C)(C)O1)c1ccccc1F (stereo partly drawn) [Example 55, (5-Biphenyl-4-yl-5,6,6-trimethyl-4,4-dioxo-5,6-dihydro-4H-4lambda6-[1,4,3]oxathiazin-2-yl)-[(S)-1-(2-fluorophenyl)-ethyl]-amine] | 28
11 | Cc1ccccc1-c1ccc(C2C(C)(C)OC(N[C@@H](CCO)c3ccccc3F)=NS2(=O)=O)cc1 (stereo partly drawn) [Example 64, (S)-3-[6,6-Dimethyl-5-(2′-methyl-biphenyl-4-yl)-4,4-dioxo-5,6-dihydro-4H-4lambda6-[1,4,3]oxathiazin-2-ylamino]-3-(2-fluorophenyl)-propan-1-ol] | 12
12 | CC1(C)OC(N[C@@H](CCO)c2ccccc2F)=NS(=O)(=O)C1c1ccc(-c2ccc(F)cc2)cc1 (stereo partly drawn) [Example 65, (S)-3-[5-(4′-Fluorobiphenyl-4-yl)-6,6-dimethyl-4,4-dioxo-5,6-dihydro-4H-4lambda6-[1,4,3]oxathiazin-2-ylamino]-3-(2-fluorophenyl)-propan-1-ol] | 21
13 | COc1ccc(-c2ccc(C3C(C)(C)OC(N[C@@H](CCO)c4ccccc4F)=NS3(=O)=O)cc2)cc1 (stereo partly drawn) [Example 66, (S)-3-(2-Fluorophenyl)-3-[5-(4′-methoxy-biphenyl-4-yl)-6,6-dimethyl-4,4-dioxo-5,6-dihydro-4H-4lambda6-[1,4,3]oxathiazin-2-ylamino]-propan-1-ol] | 23
14 | CC1(C)OC(N[C@@H](CCO)c2ccccc2F)=NS(=O)(=O)C1c1cccc(-c2ccccc2)c1 (stereo partly drawn) [Example 67, (S)-3-(5-Biphenyl-3-yl-6,6-dimethyl-4,4-dioxo-5,6-dihydro-4H-4lambda6-[1,4,3]oxathiazin-2-ylamino)-3-(2-fluorophenyl)-propan-1-ol] | 15
15 | C[C@H](NC1=NS(=O)(=O)C(c2cccc(-c3ccccc3)c2)C(C)(C)O1)c1ccccc1F (stereo partly drawn) [Example 68, (5-Biphenyl-3-yl-6,6-dimethyl-4,4-dioxo-5,6-dihydro-4H-4lambda6-[1,4,3]oxathiazin-2-yl)-[(S)-1-(2-fluorophenyl)-ethyl]-amine] | 34
16 | CC1(C)OC(N[C@@H](CCO)c2ccccc2F)=NS(=O)(=O)C1(C)c1cccc(-c2ccc(F)cc2)c1 (stereo partly drawn) [Example 71, (S)-3-[5-(4′-Fluorobiphenyl-3-yl)-5,6,6-trimethyl-4,4-dioxo-5,6-dihydro-4H-4lambda6-[1,4,3]oxathiazin-2-ylamino]-3-(2-fluorophenyl)-propan-1-ol] | 22
17 | CC1(C)OC(N[C@@H](CCO)c2ccccc2)=NS(=O)(=O)C1(C)c1cccc(-c2ccccc2)c1 (stereo partly drawn) [Example 72, (S)-3-(5-Biphenyl-3-yl-5,6,6-trimethyl-4,4-dioxo-5,6-dihydro-4H-4lambda6-[1,4,3]oxathiazin-2-ylamino)-3-phenyl-propan-1-ol] | 46
18 | C[C@H](NC1=NS(=O)(=O)C(C)(c2cccc(-c3ccccc3)c2)C(C)(C)O1)c1ccccc1F (stereo partly drawn) [Example 73, (5-Biphenyl-3-yl-5,6,6-trimethyl-4,4-dioxo-5,6-dihydro-4H-4lambda6-[1,4,3]oxathiazin-2-yl)-[(S)-1-(2-fluorophenyl)-ethyl]-amine] | 28
19 | O=S1(=O)N=C(N[C@@H](CCO)c2ccccc2F)OC2(COC2)C1c1ccc(-c2ccccc2)cc1 (stereo partly drawn) [Example 76, (S)-3-(9-Biphenyl-4-yl-8,8-dioxo-2,5-dioxa-8lambda6-thia-7-aza-spiro[3.5]non-6-en-6-ylamino)-3-(2-fluorophenyl)-propan-1-ol] | 332
20 | O=S1(=O)N=C(N[C@@H](CCO)c2ccccc2F)OC2(CCC2)C1c1ccc(-c2ccccc2)cc1 (stereo partly drawn) [Example 77, (S)-3-(9-Biphenyl-4-yl-8,8-dioxo-5-oxa-8lambda6-thia-7-aza-spiro[3.5]non-6-en-6-ylamino)-3-(2-fluorophenyl)-propan-1-ol] | 26
21 | O=S1(=O)N=C(N[C@@H](CCO)c2ccccc2F)OC2(CCCC2)C1c1ccc(-c2ccccc2)cc1 (stereo partly drawn) [Example 78, (S)-3-(10-Biphenyl-4-yl-9,9-dioxo-6-oxa-9lambda6-thia-8-aza-spiro[4.5]dec-7-en-7-ylamino)-3-(2-fluorophenyl)-propan-1-ol] | 35
